Experimental data reported in the NIST ThermoML archive (doi:10.1021/acs.jced.6b00178).
Numbers after ± are expanded uncertainties.

Legend:
[1] = xn = mol fraction of the nth substance listed; settings: 100 kPa, Liquid, x1 = 1; for viscosity: Concentric cylinders viscometry; for mass density: Vibrating tube method
[2] = 100 kPa, Liquid; for viscosity: Concentric cylinders viscometry; for mass density: Vibrating tube method

CCCC[n+]1ccn(C)c1.O=S(=O)([N-]S(=O)(=O)C(F)(F)F)C(F)(F)F + CCCCn1cc[n+](C)c1.N#C[S-]
[1]
Settings | mass density [kg/m3] | viscosity [mPa·s]
283.15 K | 1451.8 ± 0.8 | 106.78 ± 5.5
288.15 K | 1446.9 ± 0.8 | 82.14 ± 4.2
293.15 K | 1442.1 ± 0.8 | 66.36 ± 3.3
298.15 K | 1437.2 ± 0.8 | 51.58 ± 2.6
303.15 K | 1432.4 ± 0.7 | 41.94 ± 2.1
308.15 K | 1427.6 ± 0.7 | 34.6 ± 1.7
313.15 K | 1422.9 ± 0.7 | 29.48 ± 1.5
318.15 K | 1418.2 ± 0.7 | 24.47 ± 1.2
323.15 K | 1413.5 ± 0.7 | 20.93 ± 1.1
328.15 K | 1408.8 ± 0.7 | 18.07 ± 0.91
333.15 K | 1404.1 ± 0.7 | 15.95 ± 0.8
338.15 K | 1399.4 ± 0.7 | 13.83 ± 0.7
343.15 K | 1394.8 ± 0.7 | 12.23 ± 0.62
348.15 K | 1390.2 ± 0.7 | 10.9 ± 0.55
353.15 K | 1385.6 ± 0.7 | 9.985 ± 0.5
358.15 K | 1381.1 ± 0.7 | 8.806 ± 0.44
363.15 K | 1376.6 ± 0.7 | 7.98 ± 0.4

CCCCn1cc[n+](C)c1.N#CN=C=[N-] [1-butyl-3-methylimidazolium dicyanamide]
[2]
Settings | mass density [kg/m3] | viscosity [mPa·s]
283.15 K | 1070 ± 1 | 58.35 ± 3
288.15 K | 1066.7 ± 1 | 45.91 ± 2.3
293.15 K | 1063.4 ± 1 | 36.83 ± 1.9
298.15 K | 1060.2 ± 1 | 30.08 ± 1.5
303.15 K | 1057 ± 1 | 24.94 ± 1.3
308.15 K | 1053.8 ± 1 | 20.98 ± 1.1
313.15 K | 1050.6 ± 1 | 17.86 ± 0.91
318.15 K | 1047.5 ± 1 | 15.38 ± 0.79
323.15 K | 1044.4 ± 1 | 13.38 ± 0.68
328.15 K | 1041.3 ± 1 | 11.74 ± 0.6
333.15 K | 1038.2 ± 1 | 10.38 ± 0.53
338.15 K | 1035.2 ± 1 | 9.251 ± 0.47
343.15 K | 1032.1 ± 1 | 8.298 ± 0.42
348.15 K | 1029.1 ± 1 | 7.488 ± 0.38
353.15 K | 1026.1 ± 1 | 6.794 ± 0.35
358.15 K | 1023.2 ± 1 | 6.196 ± 0.32
363.15 K | 1020.3 ± 0.9 | 5.677 ± 0.29

CCCC[n+]1ccn(C)c1.O=S(=O)([N-]S(=O)(=O)C(F)(F)F)C(F)(F)F + CCCCn1cc[n+](C)c1.O=S(=O)([O-])C(F)(F)F
[1]
Settings | mass density [kg/m3] | viscosity [mPa·s]
283.15 K | 1451.8 ± 0.8 | 106.78 ± 5.5
288.15 K | 1446.9 ± 0.8 | 82.14 ± 4.2
293.15 K | 1442.1 ± 0.8 | 66.36 ± 3.3
298.15 K | 1437.2 ± 0.8 | 51.58 ± 2.6
303.15 K | 1432.4 ± 0.7 | 41.94 ± 2.1
308.15 K | 1427.6 ± 0.7 | 34.6 ± 1.7
313.15 K | 1422.9 ± 0.7 | 29.48 ± 1.5
318.15 K | 1418.2 ± 0.7 | 24.47 ± 1.2
323.15 K | 1413.5 ± 0.7 | 20.93 ± 1.1
328.15 K | 1408.8 ± 0.7 | 18.07 ± 0.91
333.15 K | 1404.1 ± 0.7 | 15.95 ± 0.8
338.15 K | 1399.4 ± 0.7 | 13.83 ± 0.7
343.15 K | 1394.8 ± 0.7 | 12.23 ± 0.62
348.15 K | 1390.2 ± 0.7 | 10.9 ± 0.55
353.15 K | 1385.6 ± 0.7 | 9.985 ± 0.5
358.15 K | 1381.1 ± 0.7 | 8.806 ± 0.44
363.15 K | 1376.6 ± 0.7 | 7.98 ± 0.4

CCCC[n+]1ccn(C)c1.O=S(=O)([N-]S(=O)(=O)C(F)(F)F)C(F)(F)F + CC(=O)[O-].CCCCn1cc[n+](C)c1
[1]
Settings | mass density [kg/m3] | viscosity [mPa·s]
283.15 K | 1451.8 ± 0.8 | 106.78 ± 5.5
288.15 K | 1446.9 ± 0.8 | 82.14 ± 4.2
293.15 K | 1442.1 ± 0.8 | 66.36 ± 3.3
298.15 K | 1437.2 ± 0.8 | 51.58 ± 2.6
303.15 K | 1432.4 ± 0.7 | 41.94 ± 2.1
308.15 K | 1427.6 ± 0.7 | 34.6 ± 1.7
313.15 K | 1422.9 ± 0.7 | 29.48 ± 1.5
318.15 K | 1418.2 ± 0.7 | 24.47 ± 1.2
323.15 K | 1413.5 ± 0.7 | 20.93 ± 1.1
328.15 K | 1408.8 ± 0.7 | 18.07 ± 0.91
333.15 K | 1404.1 ± 0.7 | 15.95 ± 0.8
338.15 K | 1399.4 ± 0.7 | 13.83 ± 0.7
343.15 K | 1394.8 ± 0.7 | 12.23 ± 0.62
348.15 K | 1390.2 ± 0.7 | 10.9 ± 0.55
353.15 K | 1385.6 ± 0.7 | 9.985 ± 0.5
358.15 K | 1381.1 ± 0.7 | 8.806 ± 0.44
363.15 K | 1376.6 ± 0.7 | 7.98 ± 0.4

CCCC[n+]1ccn(C)c1.O=S(=O)([N-]S(=O)(=O)C(F)(F)F)C(F)(F)F + CCCCn1cc[n+](C)c1.F[P-](F)(F)(F)(F)F
[1]
Settings | mass density [kg/m3] | viscosity [mPa·s]
283.15 K | 1451.8 ± 0.8 | 106.77 ± 5.5
288.15 K | 1446.9 ± 0.8 | 82.16 ± 4.2
293.15 K | 1442.1 ± 0.8 | 64.53 ± 3.3
298.15 K | 1437.2 ± 0.8 | 51.6 ± 2.6
303.15 K | 1432.4 ± 0.7 | 41.93 ± 2.1
308.15 K | 1427.6 ± 0.7 | 34.59 ± 1.7
313.15 K | 1422.8 ± 0.7 | 28.91 ± 1.5
318.15 K | 1418.1 ± 0.7 | 24.46 ± 1.2
323.15 K | 1413.4 ± 0.7 | 20.91 ± 1.1
328.15 K | 1408.7 ± 0.7 | 18.05 ± 0.91
333.15 K | 1404 ± 0.7 | 15.72 ± 0.79
338.15 K | 1399.3 ± 0.7 | 13.8 ± 0.69
343.15 K | 1394.7 ± 0.7 | 12.2 ± 0.61
348.15 K | 1390.1 ± 0.7 | 10.86 ± 0.55
353.15 K | 1385.5 ± 0.7 | 9.72 ± 0.49
358.15 K | 1381 ± 0.7 | 8.754 ± 0.44
363.15 K | 1376.4 ± 0.7 | 7.926 ± 0.4

CCCC[n+]1ccn(C)c1.O=S(=O)([N-]S(=O)(=O)C(F)(F)F)C(F)(F)F + CCCCn1cc[n+](C)c1.COP(=O)([O-])OC
[1]
Settings | mass density [kg/m3] | viscosity [mPa·s]
283.15 K | 1451.8 ± 0.8 | 106.78 ± 5.5
288.15 K | 1446.9 ± 0.8 | 82.14 ± 4.2
293.15 K | 1442.1 ± 0.8 | 66.36 ± 3.3
298.15 K | 1437.2 ± 0.8 | 51.58 ± 2.6
303.15 K | 1432.4 ± 0.7 | 41.94 ± 2.1
308.15 K | 1427.6 ± 0.7 | 34.6 ± 1.7
313.15 K | 1422.9 ± 0.7 | 29.48 ± 1.5
318.15 K | 1418.2 ± 0.7 | 24.47 ± 1.2
323.15 K | 1413.5 ± 0.7 | 20.93 ± 1.1
328.15 K | 1408.8 ± 0.7 | 18.07 ± 0.91
333.15 K | 1404.1 ± 0.7 | 15.95 ± 0.8
338.15 K | 1399.4 ± 0.7 | 13.83 ± 0.7
343.15 K | 1394.8 ± 0.7 | 12.23 ± 0.62
348.15 K | 1390.2 ± 0.7 | 10.9 ± 0.55
353.15 K | 1385.6 ± 0.7 | 9.985 ± 0.5
358.15 K | 1381.1 ± 0.7 | 8.806 ± 0.44
363.15 K | 1376.6 ± 0.7 | 7.98 ± 0.4
